Assay results reported in US20120202701A1, “AN ANTIBODY-GLYCAN COMPLEX TARGETING THE DISIALYL CORE II AND SIALYL LEWIS X STRUCTURES, AND USES THEREOF INVOLVING ANALYSIS OF STEM CELLS OR CANCER CELLS” (GLYKOS FINLAND OY, priority 2009, published 2012).

Tested on: mAb CHO-131
Assay: Glycan microarray analysis (Consortium for Functional Glycomics, printed array version 4.0), glycan binding of mAb CHO-131
Settings: glycan microarray, as described
Protocol: (§1) mAb CHO-131 was purchased from R&D Systems (MAB996). mAb CSLEX was purchased form BD Biosciences (551344). Glycan microarray analysis was carried out by the Consortium for Functional Glycomics. Glycan microarrays were printed as described (Blixt 2004). Version 4.0 of the printed glycan array was used for analysis. Binding analysis was performed at 50 μg/ml of antibody. Data are reported as average RFU of 6 replicates after removal of highest and lowest values.

Compound	binding to CHO-131 antibody, in words
CC(=O)N[C@H]1[C@H](OCCCN)O[C@H](CO)[C@@H](O)[C@@H]1O[C@@H]1O[C@H](C(=O)O)[C@@H](O)[C@H](O)[C@H]1O [Chart Number 299, GlcAb1-3GlcNAcb-Sp8, reference compound]	some binding

Same assay, conditions: mAb CHO-131 at 50 μg/ml; average RFU of 6 replicates after removal of highest and lowest values

Compound	RFU [RFU]
NCCCO[C@@H]1O[C@H](COS(=O)(=O)O)[C@@H](O[C@@H]2O[C@H](CO)[C@H](O)[C@H](OS(=O)(=O)O)[C@H]2O)[C@H](O)[C@H]1O [compound 25]	903
CC(=O)N[C@H]1[C@H](OCCN)O[C@H](COS(=O)(=O)O)[C@@H](O[C@@H]2O[C@H](CO)[C@H](O)[C@H](OS(=O)(=O)O)[C@H]2O)[C@@H]1O [compound 31]	266
CC(=O)N[C@H]1[C@H](OCCCN)O[C@H](COS(=O)(=O)O)[C@@H](O[C@@H]2O[C@H](CO)[C@H](O)[C@H](OS(=O)(=O)O)[C@H]2O)[C@@H]1O [compound 32]	584
NCCCO[C@@H]1O[C@H](CO)[C@H](O)[C@H](OS(=O)(=O)O)[C@H]1O [compound 35]	345
CC(=O)N[C@H]1[C@H](OCCN)O[C@H](CO)[C@@H](O[C@@H]2O[C@H](COS(=O)(=O)O)[C@H](OS(=O)(=O)O)[C@H](O)[C@H]2O)[C@@H]1O [compound 36]	427
NCCCO[C@@H]1O[C@H](COS(=O)(=O)O)[C@@H](O[C@@H]2O[C@H](COS(=O)(=O)O)[C@H](O)[C@H](O)[C@H]2O)[C@H](O)[C@H]1O [compound 42]	505
NCCO[C@@H]1O[C@H](COS(=O)(=O)O)[C@@H](O[C@@H]2O[C@H](CO)[C@H](O)[C@H](O)[C@H]2O)[C@H](O)[C@H]1O [compound 146]	148
NCCCO[C@H]1O[C@H](C(=O)O)[C@@H](O)[C@H](O)[C@H]1O [compound 192]	227
NCCCO[C@@H]1O[C@H](C(=O)O)[C@@H](O)[C@H](O)[C@H]1O [compound 193]	274
CC(=O)N[C@H]1C(OCCCN)O[C@H](COS(=O)(=O)O)[C@@H](O[C@@H]2O[C@H](CO)[C@H](O)[C@H](OS(=O)(=O)O)[C@H]2O)[C@@H]1O[C@@H]1O[C@@H](C)[C@@H](O)[C@@H](O)[C@@H]1O (stereo partly drawn) [compound 210]	403
C[C@@H]1O[C@@H](O[C@H]2[C@H](O[C@H]3[C@H](O)[C@@H](O)C(OCCN)O[C@@H]3COS(=O)(=O)O)O[C@H](COS(=O)(=O)O)[C@H](O)[C@@H]2O)[C@@H](O)[C@H](O)[C@@H]1O (stereo partly drawn) [compound 213]	1100
CC(=O)N[C@H]1[C@H](OCCCN)O[C@H](COS(=O)(=O)O)[C@@H](O[C@@H]2O[C@H](CO)[C@H](O)[C@H](O[C@]3(C(=O)O)C[C@H](O)[C@@H](NC(C)=O)[C@H]([C@H](O)[C@H](O)CO)O3)[C@H]2O)[C@@H]1O[C@@H]1O[C@@H](C)[C@@H](O)[C@@H](O)[C@@H]1O [compound 241]	256
CC(=O)N[C@H]1[C@H](OCCCN)O[C@H](COS(=O)(=O)O)[C@@H](O[C@@H]2O[C@H](CO[C@]3(C(=O)O)C[C@H](O)[C@@H](NC(C)=O)[C@H]([C@H](O)[C@H](O)CO)O3)[C@H](O)[C@H](O)[C@H]2O)[C@@H]1O [compound 256]	243
C[C@@H]1O[C@@H](O[C@H]2[C@H](O[C@@H]3O[C@H](CO)[C@H](O)[C@H](O)[C@H]3O)[C@@H](COS(=O)(=O)O)OC(OCCN)[C@@H]2O)[C@@H](O)[C@H](O)[C@@H]1O (stereo partly drawn) [compound 281]	138
CC(=O)N[C@H]1[C@H](OCCN)O[C@H](CO)[C@@H](O[C@@H]2O[C@H](CO)[C@H](O)[C@H](O[C@]3(C(=O)O)C[C@H](O)[C@@H](NC(C)=O)[C@H]([C@H](O)[C@H](O)COC(C)=O)O3)[C@H]2O)[C@@H]1O [compound 323]	271
CC(=O)N[C@H]1[C@H](OCCN)O[C@H](CO)[C@@H](O[C@@H]2O[C@H](CO)[C@H](O)[C@H](O[C@@H]3O[C@H](COS(=O)(=O)O)[C@@H](O)[C@H](O)[C@H]3NC(C)=O)[C@H]2O)[C@@H]1O [compound 351]	138
CC(=O)N[C@H]1C(OCCN)O[C@H](COS(=O)(=O)O)[C@@H](O)[C@@H]1O[C@@H]1O[C@H](COS(=O)(=O)O)[C@H](O)[C@H](O)[C@H]1O (stereo partly drawn) [compound 440]	1773

Tested on: mAb CSLEX
Assay: Glycan microarray analysis (Consortium for Functional Glycomics, printed array version 4.0), glycan binding of mAb CSLEX
Settings: mAb CSLEX at 50 μg/ml; average RFU of 6 replicates after removal of highest and lowest values
Protocol: as §1

Compound	RFU [RFU]
CC(=O)N[C@H]1[C@H](OCCN)O[C@H](CO)[C@@H](O[C@@H]2O[C@H](CO)[C@H](O)[C@H](O[C@H]3O[C@H](CO)[C@H](O)[C@H](O)[C@H]3NC(C)=O)[C@H]2O[C@@H]2O[C@@H](C)[C@@H](O)[C@@H](O)[C@@H]2O)[C@@H]1O [compound 82]	30
CC(=O)N[C@H]1[C@H](O[C@H]2[C@@H](O)[C@@H](CO)O[C@H](OCCCN)[C@@H]2NC(C)=O)O[C@H](CO)[C@H](O)[C@@H]1O [compound 91]	56
CC(=O)NC1C(O)CC(OC2C(O)C(OC3C(CO)OC(OCCN)C(O)C3O)OC(CO)C2OC2OC(CO)C(O)C(OC3OC(CO)C(O)C(O)C3O)C2NC(C)=O)(C(=O)O)OC1C(O)C(O)CO (stereo not drawn) [compound 135]	28
CC(=O)N[C@H]1[C@H](O[C@@H]2[C@H](O)[C@@H](O)[C@H](O[C@H]3[C@H](O)[C@@H](O)[C@H](OCCCN)O[C@@H]3CO)O[C@@H]2CO)O[C@H](CO)[C@H](O)[C@@H]1O[C@@H]1O[C@H](CO)[C@H](O)[C@H](O)[C@H]1O [compound 136]	58
NCCCO[C@@H]1O[C@H](CO)[C@H](O)[C@H](O[C@@H]2O[C@H](CO)[C@H](O)[C@H](O)[C@H]2O)[C@H]1O [compound 137]	37
CC(=O)N[C@H]1[C@H](O[C@@H]2[C@H](O)[C@@H](O)[C@H](O[C@H]3[C@H](O[C@@H]4O[C@@H](C)[C@@H](O)[C@@H](O)[C@@H]4O)[C@@H](NC(C)=O)[C@H](OCCN)O[C@@H]3CO)O[C@@H]2CO)O[C@H](CO)[C@@H](O[C@@H]2O[C@H](CO)[C@H](O)[C@H](O)[C@H]2O)[C@@H]1O[C@@H]1O[C@@H](C)[C@@H](O)[C@@H](O)[C@@H]1O [compound 144]	28
CC(=O)N[C@H]1[C@H](O[C@H]2[C@@H](O)[C@@H](CO)O[C@@H](O[C@H]3[C@H](O)[C@@H](O)[C@H](OCCN)O[C@@H]3CO)[C@@H]2O)O[C@H](CO)[C@@H](O[C@@H]2O[C@H](CO)[C@H](O)[C@H](O)[C@H]2O)[C@@H]1O [compound 155]	29
CC(=O)N[C@H]1[C@H](OCCCN)O[C@H](CO)[C@@H](O[C@@H]2O[C@H](CO)[C@H](O)[C@H](O)[C@H]2O)[C@@H]1O [compound 161]	34
CC(=O)N[C@H]1[C@H](O[C@H]2[C@@H](O)[C@@H](CO)O[C@@H](OCCCN)[C@@H]2O)O[C@H](CO)[C@@H](O)[C@@H]1O [compound 171]	106
CC(=O)N[C@H]1[C@@H](OCCCN)O[C@H](CO[C@@H]2O[C@H](CO)[C@@H](O)[C@H](O)[C@H]2NC(C)=O)[C@H](O[C@@H]2O[C@H](CO)[C@@H](O)[C@H](O)[C@H]2NC(C)=O)[C@@H]1O [compound 177]	29
CC(=O)N[C@H]1[C@H](OCCCN)O[C@H](CO)[C@@H](O[C@@H]2O[C@H](CO)[C@H](O[C@@H]3O[C@H](CO)[C@@H](O)[C@H](O)[C@H]3NC(C)=O)[C@H](O)[C@H]2O)[C@@H]1O [compound 178]	33
NCCCO[C@@H]1O[C@H](CO[C@@H]2O[C@H](CO)[C@@H](O)[C@H](O)[C@H]2O)[C@@H](O)[C@H](O)[C@H]1O [compound 190]	28
